The values that follow come from PMC6522510 (Nature Communications, 2019).

Among the test systems are U937; M07e; CHRF288-11; MV4-11; MOLM-13; ML-2; CMS; CMK.
What all share (parameters): species or system AML cell lines (8); Primary HTS, single concentration about 10 uM, Cell Titer Glo viability; log10 luminescence, per cent inhibition relative to cycloheximide control
What all share (settings): 72 h, relative to cycloheximide control, log10 luminescence; inhibitor
Background: ATP-based viability assays read luminescence as a measure of living cells.

Where a name gives a salt, the structure may show the parent alone.

With `CCCCC1C(=O)N(c2ccccc2)N(c2ccccc2)C1=O` [SJ000285567-6, PHENYLBUTAZONE], the U937 %inh in the test with U937 is given as -1.746%. The M07e %inh with M07e is recorded as 3.977%. The CHRF288-11 %inh with CHRF288-11 was -2.959%. Also, the MV4-11 %inh in the test on MV4-11 came to 1.406%. In addition, the MOLM-13 %inh in the test with MOLM-13 is recorded as -1.33%. In addition, the ML-2 %inh in the test on ML-2 was determined as 1.616%. In the test on CMS, the CMS %inh is recorded as -0.9956%. The CMK %inh with CMK is -7.117%.
Regarding `CC1(C)O[C@@H]2C[C@H]3[C@@H]4C[C@H](F)C5=CC(=O)C=C[C@]5(C)[C@@]4(F)[C@@H](O)C[C@]3(C)[C@]2(C(=O)CO)O1` [SJ000287016-2, FLUOCINOLONE ACETONIDE], the U937 %inh in the test with U937 is on record as 7.141%. The M07e %inh with M07e is listed as -0.198%. Further, the CHRF288-11 %inh with CHRF288-11 was 4.658%. Moreover, the MV4-11 %inh in the test with MV4-11 is 1.404%. Besides, in the test with MOLM-13, the MOLM-13 %inh is given as 1.204%. Moreover, the ML-2 %inh in the test on ML-2 is reported as 2.188%. Besides, the CMS %inh in the test with CMS is 9.034%. The CMK %inh with CMK was -1.286%.
Take `COc1ccc(-c2nn3ncccc3c2-c2ccnc(Nc3ccc(F)c(F)c3)n2)cc1` [SJ000573231-1, U17838/182/3]: the U937 %inh in the test with U937 is -1.69%. In addition, the M07e %inh in the test on M07e was -2.16%. Further, in the test on CHRF288-11, the CHRF288-11 %inh is reported as -2.425%. Further, the MV4-11 %inh in the test on MV4-11 is -1.012%. The MOLM-13 %inh in the test with MOLM-13 is recorded as -1.234%. Besides, the ML-2 %inh with ML-2 was found to be 2.035%. Also, the CMS %inh in the test with CMS was 1.385%. Moreover, the CMK %inh with CMK is recorded as 1.273%.
On to `CC(=O)CCCCn1c(=O)c2c(ncn2C)n(C)c1=O` [SJ000285992-7, PENTOXIFYLLINE], for which the U937 %inh in the test with U937 is -1.659%. In the test on M07e, the M07e %inh was -1.002%. Moreover, the CHRF288-11 %inh with CHRF288-11 was -2.356%. Also, the MV4-11 %inh in the test with MV4-11 is listed as 4.085%. The MOLM-13 %inh in the test on MOLM-13 came out at 0.7772%. Besides, the ML-2 %inh with ML-2 is recorded as -1.777%. Further, in the test with CMS, the CMS %inh is -0.2539%. Moreover, the CMK %inh in the test with CMK is given as 2.352%.
Take `Nc1c(C(=O)c2cccc(-c3cccnc3)c2)cnn1-c1ccc(F)cc1` [SJ000581038-1]: the U937 %inh in the test on U937 is 0.8257%. In addition, the M07e %inh with M07e came to 5.379%. In the test on CHRF288-11, the CHRF288-11 %inh is -0.1911%. Further, the MV4-11 %inh in the test with MV4-11 is reported as 1.728%. Moreover, in the test on MOLM-13, the MOLM-13 %inh is 1.631%. In the test with ML-2, the ML-2 %inh is 2.13%. Besides, in the test on CMS, the CMS %inh is 0.2916%. Further, the CMK %inh with CMK was -3.194%.
`Nc1c(C(=O)c2cccc(-c3ccncc3)c2)cnn1-c1ccc(F)cc1F` [SJ000581077-1]: in the test with U937, the U937 %inh stood at 32.29%. In the test with M07e, the M07e %inh is given as 29.92%. Also, the CHRF288-11 %inh with CHRF288-11 is listed as 21.24%. Further, in the test on MV4-11, the MV4-11 %inh is on record as 3.251%. Moreover, the MOLM-13 %inh in the test on MOLM-13 is listed as 13.91%. Moreover, the ML-2 %inh in the test on ML-2 is on record as 15.89%. In addition, the CMS %inh with CMS worked out at 10.55%. In addition, the CMK %inh with CMK was determined as 75.1%.
Turning to `CC(C)Nc1cccnc1N1CCN(C(=O)c2cc3cc(NS(C)(=O)=O)ccc3[nH]2)CC1` [SJ000565159-1, DELAVIRDINE MESYLATE], in the test with U937, the U937 %inh came to 0.4896%. The M07e %inh in the test with M07e is -1.136%. Besides, in the test on CHRF288-11, the CHRF288-11 %inh was -4.194%. Further, the MV4-11 %inh in the test on MV4-11 amounted to 1.25%. Besides, the MOLM-13 %inh in the test on MOLM-13 worked out at 5.504%. Moreover, in the test on ML-2, the ML-2 %inh was -1.959%. In addition, in the test with CMS, the CMS %inh is -2.71%. In addition, in the test on CMK, the CMK %inh was -2.785%.
`CN1CCN(CCCNc2nc3ccc(Oc4ccc(NC(=O)Nc5cc(C(F)(F)F)ccc5F)cc4)cc3[nH]2)CC1` [SJ000573304-1, T278/35/2]: the U937 %inh in the test on U937 came out at 2.101%. Moreover, the M07e %inh in the test with M07e is listed as 5.692%. Also, in the test on CHRF288-11, the CHRF288-11 %inh is reported as -0.361%. Further, the MV4-11 %inh in the test with MV4-11 is 57.09%. For the same molecule, the MOLM-13 %inh with MOLM-13 is reported as 79.64%. Further, the ML-2 %inh in the test on ML-2 amounted to 1.341%. In addition, the CMS %inh with CMS came out at 2.836%. Moreover, the CMK %inh with CMK is on record as 2.938%.
Consider `Cc1ccc(C(=O)NC2CC2)cc1-c1ccc2[nH]ncc2c1` [SJ000573272-1, R8615/48/1], for which the U937 %inh with U937 is on record as 1.222%. The M07e %inh in the test on M07e is 0.6909%. Moreover, in the test on CHRF288-11, the CHRF288-11 %inh was found to be 1.821%. In addition, in the test on MV4-11, the MV4-11 %inh stood at 1.257%. Moreover, in the test with MOLM-13, the MOLM-13 %inh is on record as -2.369%. Also, the ML-2 %inh with ML-2 is 0.7274%. The CMS %inh with CMS came to 0.2308%. Further, the CMK %inh with CMK was 0.7696%.
For `O=C1Nc2ccccc2/C1=C\c1c(Cl)[nH]c2ccccc12` [SJ000312180-2, CDK1 INHIBITOR], the U937 %inh in the test on U937 is 78.83%. Further, in the test with M07e, the M07e %inh came to 105.1%. Further, the CHRF288-11 %inh in the test with CHRF288-11 worked out at 68.22%. In addition, the MV4-11 %inh in the test on MV4-11 is recorded as 76.6%. The MOLM-13 %inh with MOLM-13 is recorded as 82.19%. Besides, in the test on ML-2, the ML-2 %inh was found to be 57.06%. In addition, the CMS %inh with CMS stood at 93.89%. Moreover, the CMK %inh with CMK is given as 109.3%.
In the case of `Cn1c(=O)c(Sc2ccccc2F)cc2cnc(NC3CCOCC3)nc21` [SJ000581094-1], the U937 %inh in the test on U937 is on record as -2.114%. Also, the M07e %inh with M07e was determined as 79.34%. Also, in the test with CHRF288-11, the CHRF288-11 %inh amounted to 5.078%. In addition, in the test on MV4-11, the MV4-11 %inh came to 1.745%. In addition, the MOLM-13 %inh in the test with MOLM-13 is given as -2.304%. Further, the ML-2 %inh in the test with ML-2 was -0.9832%. The CMS %inh in the test with CMS is on record as -0.09142%. Further, in the test on CMK, the CMK %inh was -1.429%.
Regarding `NC(=O)c1ccc(-c2nc(-c3ccccn3)c(-c3ccc4c(c3)OCO4)[nH]2)cc1` [SJ000573251-1, TH48888-160A1], in the test on U937, the U937 %inh was -1.697%. The M07e %inh in the test on M07e came to 3.715%. In the test on CHRF288-11, the CHRF288-11 %inh worked out at 1.837%. In the test with MV4-11, the MV4-11 %inh was 2.981%. Moreover, the MOLM-13 %inh in the test with MOLM-13 was 3.34%. Further, the ML-2 %inh with ML-2 was determined as 2.652%. Moreover, the CMS %inh with CMS is listed as 1.606%. Besides, in the test with CMK, the CMK %inh was 9.718%.
Take `COc1cc2ncn(-c3cc(OCc4cccs4)c(C(N)=O)s3)c2cc1OC` [SJ000573255-1, U21051/7/15]: the U937 %inh in the test with U937 was determined as 17.16%. In the test on M07e, the M07e %inh is on record as 12.77%. For the same molecule, in the test with CHRF288-11, the CHRF288-11 %inh amounted to 6.199%. Also, in the test with MV4-11, the MV4-11 %inh is on record as 6.732%. The MOLM-13 %inh in the test with MOLM-13 was 63.69%. In the test with ML-2, the ML-2 %inh stood at 24.59%. Moreover, in the test on CMS, the CMS %inh turned out to be 9.159%. The CMK %inh in the test with CMK is reported as -3.278%.
In the case of `Nc1nc(-c2ccccn2)c(-c2ccc3ncccc3n2)s1` [SJ000573278-1, FAMP/256/57/4], the U937 %inh with U937 is on record as -0.9094%. Further, the M07e %inh in the test with M07e is listed as 0.9531%. For the same molecule, in the test with CHRF288-11, the CHRF288-11 %inh stood at 2.264%. Further, the MV4-11 %inh in the test on MV4-11 is reported as -2.996%. In addition, in the test on MOLM-13, the MOLM-13 %inh was 2.605%. For the same molecule, the ML-2 %inh with ML-2 was found to be 2.846%. The CMS %inh in the test on CMS is reported as 0.3275%. Besides, in the test with CMK, the CMK %inh is 2.499%.
With `CCOC(=O)C1=C[C@@H](OC(CC)CC)[C@H](NC(C)=O)[C@@H](N)C1` [SJ000555712-1, OSELTAMIVIR PHOSPHATE], the U937 %inh with U937 is -0.7037%. Moreover, the M07e %inh with M07e is recorded as -1.677%. In the test on CHRF288-11, the CHRF288-11 %inh is given as -4.38%. In addition, the MV4-11 %inh with MV4-11 was -1.699%. The MOLM-13 %inh with MOLM-13 is listed as -1.922%. Also, the ML-2 %inh with ML-2 was found to be 3.111%. Besides, in the test on CMS, the CMS %inh came out at 1.863%. In addition, the CMK %inh with CMK is listed as 1.207%.
With `CCOC(=O)c1ncn2c1CN(C)C(=O)c1cc(F)ccc1-2` [SJ000287880-4, FLUMAZENIL], the U937 %inh in the test with U937 was determined as 0.9807%. Further, the M07e %inh in the test with M07e is reported as 1.865%. Further, in the test on CHRF288-11, the CHRF288-11 %inh is reported as 1.517%. For the same molecule, in the test with MV4-11, the MV4-11 %inh stood at 0.7722%. The MOLM-13 %inh with MOLM-13 was -0.5944%. For the same molecule, in the test on ML-2, the ML-2 %inh is listed as -1.521%. Also, the CMS %inh in the test on CMS came out at 5.754%. For the same molecule, the CMK %inh with CMK is listed as -1.15%.
Regarding `COc1ccc(O)c(C(=O)c2ccc(C(=O)N[C@@H]3CCCNC[C@H]3NC(=O)c3ccncc3)cc2)c1F` [SJ000580985-1], the U937 %inh with U937 is 23.19%. The M07e %inh in the test with M07e is given as 4.451%. For the same molecule, in the test on CHRF288-11, the CHRF288-11 %inh stood at 19.87%. Also, the MV4-11 %inh in the test on MV4-11 was determined as 52.11%. In the test on MOLM-13, the MOLM-13 %inh is 32.45%. Besides, in the test with ML-2, the ML-2 %inh amounted to 46.48%. In addition, the CMS %inh with CMS is on record as 1.516%. Also, in the test on CMK, the CMK %inh is on record as 12.77%.
Turning to `CNC(=O)Oc1cc(C)c(/C=C/c2cncc(C(=O)NC)c2)c(C)c1` [SJ000573141-1, U11962/26/1], the U937 %inh in the test with U937 worked out at 0.6726%. The M07e %inh in the test on M07e amounted to 6.045%. The CHRF288-11 %inh in the test on CHRF288-11 is reported as 7.117%. Also, the MV4-11 %inh in the test with MV4-11 was found to be 1.51%. The MOLM-13 %inh with MOLM-13 was found to be 3.548%. In the test with ML-2, the ML-2 %inh was determined as 1.2%. In addition, the CMS %inh in the test with CMS is -0.3622%. In addition, the CMK %inh with CMK is on record as 8.893%.
